Results as given in US20250108019A1, “USE OF LACTIC ACID IN PRODUCT FOR REGULATING AND PROMOTING TISSUE GROWTH” (CHANGCHUN SINOBIOMATERIALS CO., LTD., priority 2022, published 2025).

Tests used:
muscle—rectus femoris = experiment: Muscle tissue diameter after local injection in mice (Sirius red, 100× optical microscope); format: in vivo; details: for Muscle tissue measured value, mean: 0.1 ml injection daily, experimental side
Excerpt: (§1) Experimental animals: Male experimental mice weighing 23±4 g were selected and divided into several groups, with 10 mice in each group. Experimental site: Different tissue sites of mice were selected for the test, specifically muscle—rectus femoris, tendon—Achilles tendon, cartilage—ear cartilage tissue. Experimental group: ? 25 mmol/L aqueous lactic acid solution • ? 50 mmol/L aqueous lactic acid solution • ? 75 mmol/L aqueous lactic acid solution and • ? 0.9% sodium chloride injection Experimental procedure: The right side of the experimental mouse was the experimental side (injected with lactic acid solutions at different concentrations), and the left side was the control side (injected with 0.9% sodium chloride injection). The experiment started with a single injection of 0.1 ml of the corresponding experimental solution at the experimental side every day from 1 to 7 days. […] The experimental and control sides of each mouse were selected for fixation and pathological histological examination. • 1) The tissue to be observed was cut and fixed, and then stained with Sirius red to observe the effects of the injection solution on the tissues at various sites. • 2) The experimental side and the control side were randomly selected for sectioning, the diameter of each tissue was measured under a 100× optical microscope, and the average value of the experimental side and the control side was calculated using the following formula: [formula] The diameters on both sides were compared, and the effects of the lactic acid solution on each tissue site were analyzed using the SSPS 21 calculation results.

tendon—Achilles tendon = experiment: Tendon diameter after local injection in mice (Sirius red, 100× optical microscope); format: in vivo; details: for Tendon measured value, mean: 0.1 ml injection daily, experimental side
Excerpt: as §1

[1] = system: cartilage—ear cartilage tissue; experiment: Ear cartilage diameter after local injection in mice (Sirius red, 100× optical microscope); format: in vivo; details: 50 mmol/L; for Ear cartilage tissue measured value, mean: 0.1 ml injection daily, experimental side
Excerpt: as §1

sciatic nerve [2] = experiment: Sciatic function index (SFI) after sciatic nerve clamp injury; format: in vivo, mice; details: 0.1 ml of 50 mmol/L intraperitoneal
Procedure: Experimental animals: Male experimental mice weighing 30˜35 g were selected and divided into 3 groups, with 26 mice in each group. Experimental site: The sciatic nerve of mice was selected. Experimental groups: ? model group (injury caused by sciatic nerve clamp injury); ? treatment group (after injuried by sciatic nerve clamp, 0.1 ml of 50 mmol/L aqueous lactic acid solution was given by intraperitoneal injection each time); and ? sham group (only the sciatic nerve was freed). Experimental procedure: The treatment group was given medication for 14 consecutive days, and the model group and sham group were given an equal amount of 0.9% sodium chloride injection. • (1) The functional recovery of the sciatic nerve of mice after injury was tracked and evaluated by using the sciatic function index (SFI) at 7 and 14 days after surgery. […] The footprints of the left injured side (E) and the right normal side (N) of the experimental mice were measured. The footprint length (PL), the distance from the first toe to the fifth toe (TS), and the distance from the second toe to the fourth toe (IT) were recorded and put into the formula for calculation. […] The formula is as follows: SFI=109.5(ETS−NTS)/NTS−38.3(EPL−NPL)/NPL+13.3(EIT−NIT)/NIT−8.8 • (2) The degree of toe spread on the injured side was recorded at 3, 7, and 14 days after surgery. […]

sciatic nerve [3] = experiment: Toe spread score after sciatic nerve clamp injury; format: in vivo, mice; details: 0.1 ml of 50 mmol/L intraperitoneal
Procedure: Experimental animals: Male experimental mice weighing 30˜35 g were selected and divided into 3 groups, with 26 mice in each group. Experimental site: The sciatic nerve of mice was selected. Experimental groups: ? model group (injury caused by sciatic nerve clamp injury); ? treatment group (after injuried by sciatic nerve clamp, 0.1 ml of 50 mmol/L aqueous lactic acid solution was given by intraperitoneal injection each time); and ? sham group (only the sciatic nerve was freed). Experimental procedure: The treatment group was given medication for 14 consecutive days, and the model group and sham group were given an equal amount of 0.9% sodium chloride injection. […] The evaluation grades are classified as scores 0˜3, with no spread being score 0 and full spread being score 3.

## CC(O)C(=O)O (centres unmarked) [lactic acid]
muscle—rectus femoris; 25 mmol/L, 3 days
  Muscle tissue measured value, mean: 64.13 μm
muscle—rectus femoris; 25 mmol/L, 7 days
  Muscle tissue measured value, mean: 79.66 μm
muscle—rectus femoris; 25 mmol/L, 14 days, * P<0.05 vs control side
  Muscle tissue measured value, mean: 123.8* μm
muscle—rectus femoris; 25 mmol/L, 21 days
  Muscle tissue measured value, mean: 112.1 μm
muscle—rectus femoris; 25 mmol/L, 14 days, FIG. 1
  Muscle tissue on the experimental side, histological observation: significantly thickened
muscle—rectus femoris; 50 mmol/L, 3 days
  Muscle tissue measured value, mean: 73.49 μm
muscle—rectus femoris; 50 mmol/L, 7 days, ** P<0.01 vs control side
  Muscle tissue measured value, mean: 69.14** μm
muscle—rectus femoris; 50 mmol/L, 14 days, * P<0.05 vs control side
  Muscle tissue measured value, mean: 119.5* μm
muscle—rectus femoris; 50 mmol/L, 21 days
  Muscle tissue measured value, mean: 111.9 μm
muscle—rectus femoris; 50 mmol/L, 7 days, FIG. 2
  Muscle tissue on the experimental side, histological observation: significantly thickened
tendon—Achilles tendon; 25 mmol/L, 3 days, * P<0.05 vs control
  Tendon measured value, mean: 853.9* μm
tendon—Achilles tendon; 25 mmol/L, 14 days
  Tendon measured value, mean: 877.1 μm
tendon—Achilles tendon; 25 mmol/L, 21 days
  Tendon measured value, mean: 438.3 μm
tendon—Achilles tendon; 25 mmol/L, 3 days after injection, FIG. 3
  Achilles tendon on the experimental side, histological observation: significantly thickened
tendon—Achilles tendon; 50 mmol/L, 3 days
  Tendon measured value, mean: 484.6 μm
tendon—Achilles tendon; 50 mmol/L, 7 days
  Tendon measured value, mean: 547.8 μm
tendon—Achilles tendon; 50 mmol/L, 14 days, * P<0.05 vs control
  Tendon measured value, mean: 769.5* μm
tendon—Achilles tendon; 50 mmol/L, 21 days
  Tendon measured value, mean: 543.9 μm
tendon—Achilles tendon; 50 mmol/L, Day 14, FIG. 4
  Achilles tendon on the experimental side, histological observation: significantly thickened
tendon—Achilles tendon; 75 mmol/L, 3 days, * P<0.05 vs control
  Tendon measured value, mean: 970.9* μm
tendon—Achilles tendon; 75 mmol/L, 7 days, * P<0.05 vs control
  Tendon measured value, mean: 832.2* μm
tendon—Achilles tendon; 75 mmol/L, 14 days
  Tendon measured value, mean: 578.2 μm
tendon—Achilles tendon; 75 mmol/L, 21 days, * P<0.05 vs control
  Tendon measured value, mean: 970.1* μm
tendon—Achilles tendon; 75 mmol/L, Day 3, 7, and 21, FIG. 5
  Achilles tendon on the experimental side, histological observation: significantly thickened
[1]; 3 days
  Ear cartilage tissue measured value, mean: 158.8 μm
[1]; 7 days
  Ear cartilage tissue measured value, mean: 237.3 μm
[1]; 14 days
  Ear cartilage tissue measured value, mean: 170.3 μm
[1]; 21 days, * P<0.05 vs control side
  Ear cartilage tissue measured value, mean: 253.5* μm
[1]; Day 21, FIG. 6
  Cross-section of the ear cartilage on the experimental side, histological observation: significantly thickened
Sciatic nerve [2]; 7 days after surgery, FIG. 7
  SFI score: significantly lower than those in the sham group
Sciatic nerve [2]; 14 days after surgery, P<0.01, FIG. 7
  SFI score: significantly increased
Sciatic nerve [3]; 3 days after surgery
  Toe spread score (0~3): 0 ± 0.4
Sciatic nerve [3]; 7 days after surgery
  Toe spread score (0~3): 0.9 ± 0.6
Sciatic nerve [3]; 10 days after surgery
  Toe spread score (0~3): 2 ± 0.3
Sciatic nerve [3]; 14 days after surgery
  Toe spread score (0~3): 2.5 ± 0.5
